Results published in patent US7863328B2, “Phenylbenzoic acid derivatives, processes for the preparation thereof, pharmaceutical compositions comprising them, and therapeutic uses thereof” (Merck Patent GmbH, priority 2005, dated 2011).

Target: T1, chimeric protein PPARγ-Gal4 (Homo sapiens, UniProt P37231)
T1 construct: expressed in transfected cells; host or cells: CV-1 cells (monkey kidney cells)
Assay: PPARγ-Gal4 transactivation test (luciferase reporter) in cotransfected CV-1 cells
Type: cell-based
Description: The measurement of the PPAR activation was performed according to a technique described by Lehmann et al. (J. Biol. Chem., 270, (1995), 12953-12956).
CV-1 cells (monkey kidney cells) are cotransfected with an expression vector for the chimeric protein PPARγ-Gal4 and with a “reporter” plasmid that allows expression of the luciferase gene placed under the control of a promoter comprising Gal4 response elements.
The cells are seeded in 96-well microplates and cotransfected using a commercial reagent with the reporter plasmid (pG5-tk-pGL3) and the expression vector for the chimeric protein (PPARγ-Gal4). After incubation for 4 hours, whole culture medium (comprising 10% foetal calf serum) is added to the wells. After 24 hours, the medium is removed and replaced with whole medium comprising the test products. The products are left in contact with the cells for 18 hours. The cells are then lysed and the luciferase activity is measured using a luminometer. A PPARγ activation factor can then be calculated by means of the activation of the expression of the reporter gene induced by the product (relative to the control cells that have received no product).
In the absence of the PPARγ ligand binding domain (vector expressing Gal4 alone), the luciferase activity measured in the presence of this product is zero.
The following transactivation result was obtained with a concentration of 30 μM on PPARγ.
The transactivation test using the expression of a chimeric protein Gal-4-PPARγ makes it possible to determine also whether an agonist functions as a “full” agonist or as a “partial” agonist in this system.
An agonist is “partial” in this system if it induces a weaker response, i.e. it has lower efficacy, than rosiglitazone, which is a “full” agonist. In concrete terms, in our system, the transactivation obtained at the plateau with a partial agonist will be between 20% and 50% of the maximum response (efficacy) at the plateau of rosiglitazone.

T1 sequence (P37231 238-503 limits assumed, change not shown): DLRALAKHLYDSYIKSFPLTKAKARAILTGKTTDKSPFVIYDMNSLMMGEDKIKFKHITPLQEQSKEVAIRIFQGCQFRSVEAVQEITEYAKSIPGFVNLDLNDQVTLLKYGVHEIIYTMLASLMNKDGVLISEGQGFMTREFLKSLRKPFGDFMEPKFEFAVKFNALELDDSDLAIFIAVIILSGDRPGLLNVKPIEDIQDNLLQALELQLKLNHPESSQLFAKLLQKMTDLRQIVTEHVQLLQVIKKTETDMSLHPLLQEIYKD
T1 sequence (P04386 1-147 partner limits assumed): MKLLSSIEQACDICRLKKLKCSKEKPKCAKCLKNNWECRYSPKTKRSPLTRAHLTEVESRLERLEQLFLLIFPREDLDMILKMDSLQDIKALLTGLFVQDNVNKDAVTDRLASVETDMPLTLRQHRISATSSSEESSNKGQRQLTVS

Activation factor of the chimeric protein PPARγ-Gal4 (concentration 30 μM, 18 hours contact, relative to control cells that have received no product (control = 1))	SMILES	Concentration to reach the maximum stimulation of the PPARγ chimeric protein (Gal4-PPARγ transactivation, plateau) [µM]	Emax (transactivation at the plateau as % of the maximum response (efficacy) of rosiglitazone, read-out: Maximum stimulation of the PPARγ chimeric protein obtained with rosiglitazone) [%]
16	Cc1cc(COc2cc3c(cc2-c2ccc(C(=O)O)cc2)CCC3=O)no1 [Example 29, 4-[6-(5-methylisoxazol-3-ylmethoxy)-1-oxoindan-5-yl]benzoic acid]	–	–
–	Cc1oc(-c2ccccc2)nc1COc1cc2c(cc1-c1ccc(C(=O)O)cc1)CCC2=O [Example 4, 4-[6-(5-Methyl-2-phenyloxazol-4-ylmethoxy)-1-oxoindan-5-yl]-benzoic acid]	6.25	23
